# Measured values as given in patent US20210254272A1, “TEXTILES HAVING ANTIMICROBIAL PROPERTIES” (Livinguard AG, priority 2015, published 2021).
# System: E. coli (ATCC 25922)
# Assay: AATCC Test Method 100-2012 antibacterial activity of the treated textile, after 25 washes and 12 abrasion cycles, contact time 60 minutes
# Assay type: cell-based
# Details: for Log reduction of antimicrobial performance: 1% o.w.f; for Log reduction of antimicrobial performance in 100 GSM Polyester fabric / Log reduction of antimicrobial performance in 100 GSM cotton fabric / Log reduction of antimicrobial performance in 300 GSM Polyester fabric / Log reduction of antimicrobial performance in 300 GSM cotton fabric / Performance Test-Log reduction of antimicrobial performance: 2 min; for Performance Test-Log reduction of antimicrobial performance: pad process, single agent 5 gm/lit
# Description: The antibacterial activity of the textile was tested in accordance with AATCC Test Method 100-2012. Prior to the test, the fabric was cut into coupons of 2×4 inches and washed separately 25 times, and exposed to 12 abrasion cycles, as per US EPA protocol 90072PA4 (described further below). The tests were made against E. coli (ATCC 25922). Contact time was 60 minutes, after inoculating with 10^8 CFU per coupon.
# [1] = exhaust 80° C., 60 min, curing 180° C., dosage 0.1% o.w.f
# [2] = exhaust 80° C., 60 min, curing 180° C., dosage 0.2% o.w.f
# [3] = exhaust 80° C., 60 min, curing 180° C., dosage 0.5% o.w.f
# [4] = exhaust 80° C., 60 min, curing 180° C., dosage 0.8% o.w.f
# [5] = exhaust 80° C., 60 min, curing 180° C., dosage 1.0% o.w.f
compound,measurement,setting,value
"CCCC1COC(Cn2cncn2)(c2ccc(Cl)cc2Cl)O1 (stereo not drawn) [Propiconazole, propiconazole]",Log reduction of antimicrobial performance of each active ingredient,"exhaust 60° C., solution dosage 1% o.w.f, process time 60 min",1.7 Log
same,Log reduction of antimicrobial performance of each active ingredient,"exhaust 60° C., solution dosage 1% o.w.f, process time 90 min",1.8 Log
same,Log reduction of antimicrobial performance of each active ingredient,"exhaust 60° C., solution dosage 1% o.w.f, process time 120 min",2.2 Log
same,Log reduction of antimicrobial performance of each active ingredient,"exhaust 60° C., solution dosage 1% o.w.f, process time 180 min",2.3 Log
same,Log reduction of antimicrobial performance of each active ingredient,"exhaust 60° C., solution dosage 1% o.w.f, process time 240 min",2.11 Log
same,Log reduction of antimicrobial performance,"exhaust 80° C., 60 min, curing 170° C., curing dwell time 0.5 min",0.3 Log
same,Log reduction of antimicrobial performance,"exhaust 80° C., 60 min, curing 170° C., curing dwell time 1.0 min",0.6 Log
same,Log reduction of antimicrobial performance,"exhaust 80° C., 60 min, curing 170° C., curing dwell time 1.5 min",0.8 Log
same,Log reduction of antimicrobial performance,"exhaust 80° C., 60 min, curing 170° C., curing dwell time 2.0 min",1.3 Log
same,Log reduction of antimicrobial performance,"exhaust 80° C., 60 min, curing 170° C., curing dwell time 2.5 min",1.1 Log
same,Log reduction of antimicrobial performance,"exhaust 80° C., 60 min, curing 170° C., curing dwell time 3.0 min",0.67 Log
same,Log reduction of antimicrobial performance,"exhaust 80° C., 60 min, curing 180° C., curing dwell time 0.5 min",1.7 Log
same,Log reduction of antimicrobial performance,"exhaust 80° C., 60 min, curing 180° C., curing dwell time 1.0 min",1.8 Log
same,Log reduction of antimicrobial performance,"exhaust 80° C., 60 min, curing 180° C., curing dwell time 1.5 min",2.2 Log
same,Log reduction of antimicrobial performance,"exhaust 80° C., 60 min, curing 180° C., curing dwell time 2.0 min",3.8 Log
same,Log reduction of antimicrobial performance,"exhaust 80° C., 60 min, curing 180° C., curing dwell time 2.5 min",3.5 Log
same,Log reduction of antimicrobial performance,"exhaust 80° C., 60 min, curing 180° C., curing dwell time 3.0 min",3.4 Log
same,Log reduction of antimicrobial performance,"exhaust 80° C., 60 min, curing 190° C., curing dwell time 0.5 min",0.3 Log
same,Log reduction of antimicrobial performance,"exhaust 80° C., 60 min, curing 190° C., curing dwell time 1.0 min",0.8 Log
same,Log reduction of antimicrobial performance,"exhaust 80° C., 60 min, curing 190° C., curing dwell time 1.5 min",2.2 Log
same,Log reduction of antimicrobial performance,"exhaust 80° C., 60 min, curing 190° C., curing dwell time 2.0 min",2.88 Log
same,Log reduction of antimicrobial performance,"exhaust 80° C., 60 min, curing 190° C., curing dwell time 2.5 min",2.34 Log
same,Log reduction of antimicrobial performance,"exhaust 80° C., 60 min, curing 190° C., curing dwell time 3.0 min",1.1 Log
same,Log reduction of antimicrobial performance,"exhaust 80° C., 60 min, curing temperature 100 ° C.",0.21 Log
same,Log reduction of antimicrobial performance,"exhaust 80° C., 60 min, curing temperature 120 ° C.",0.45 Log
same,Log reduction of antimicrobial performance,"exhaust 80° C., 60 min, curing temperature 140 ° C.",0.98 Log
same,Log reduction of antimicrobial performance,"exhaust 80° C., 60 min, curing temperature 160 ° C.",1.23 Log
same,Log reduction of antimicrobial performance,"exhaust 80° C., 60 min, curing temperature 165 ° C.",1.28 Log
same,Log reduction of antimicrobial performance,"exhaust 80° C., 60 min, curing temperature 170 ° C.",1.45 Log
same,Log reduction of antimicrobial performance,"exhaust 80° C., 60 min, curing temperature 175 ° C.",2.32 Log
same,Log reduction of antimicrobial performance,"exhaust 80° C., 60 min, curing temperature 180 ° C.",2.87 Log
same,Log reduction of antimicrobial performance,"exhaust 80° C., 60 min, curing temperature 185 ° C.",2.88 Log
same,Log reduction of antimicrobial performance,"exhaust 80° C., 60 min, curing temperature 190 ° C.",2.91 Log
same,Log reduction of antimicrobial performance,"exhaust 80° C., 60 min, curing temperature 195 ° C.",2.93 Log
same,Log reduction of antimicrobial performance in 100 GSM Polyester fabric,[1],0.59 Log
same,Log reduction of antimicrobial performance in 100 GSM cotton fabric,[1],0.63 Log
same,Log reduction of antimicrobial performance in 300 GSM Polyester fabric,[1],0.58 Log
same,Log reduction of antimicrobial performance in 300 GSM cotton fabric,[1],0.64 Log
same,Log reduction of antimicrobial performance in 100 GSM Polyester fabric,[2],1.35 Log
same,Log reduction of antimicrobial performance in 100 GSM cotton fabric,[2],1.45 Log
same,Log reduction of antimicrobial performance in 300 GSM Polyester fabric,[2],1.37 Log
same,Log reduction of antimicrobial performance in 300 GSM cotton fabric,[2],1.45 Log
same,Log reduction of antimicrobial performance in 100 GSM Polyester fabric,[3],1.71 Log
same,Log reduction of antimicrobial performance in 100 GSM cotton fabric,[3],1.95 Log
same,Log reduction of antimicrobial performance in 300 GSM Polyester fabric,[3],1.73 Log
same,Log reduction of antimicrobial performance in 300 GSM cotton fabric,[3],1.95 Log
same,Log reduction of antimicrobial performance in 100 GSM Polyester fabric,[4],2.14 Log
same,Log reduction of antimicrobial performance in 100 GSM cotton fabric,[4],2.34 Log
same,Log reduction of antimicrobial performance in 300 GSM Polyester fabric,[4],2.50 Log
same,Log reduction of antimicrobial performance in 300 GSM cotton fabric,[4],2.34 Log
same,Log reduction of antimicrobial performance in 100 GSM Polyester fabric,[5],2.75 Log
same,Log reduction of antimicrobial performance in 100 GSM cotton fabric,[5],2.85 Log
same,Log reduction of antimicrobial performance in 300 GSM Polyester fabric,[5],2.74 Log
same,Log reduction of antimicrobial performance in 300 GSM cotton fabric,[5],2.88 Log
same,Log reduction of antimicrobial performance of each active ingredient,"exhaust 80° C., 60 min, dosage 1% o.w.f (test up to 5% o.w.f)",2.56 Log
same,Log reduction of antimicrobial performance of each active ingredient,"exhaust 80° C., 60 min, dosage 2% o.w.f",2.57 Log
same,Log reduction of antimicrobial performance of each active ingredient,"exhaust 80° C., 60 min, dosage 3% o.w.f",2.58 Log
same,Log reduction of antimicrobial performance of each active ingredient,"exhaust 80° C., 60 min, dosage 4% o.w.f",2.61 Log
same,Log reduction of antimicrobial performance of each active ingredient,"exhaust 80° C., 60 min, dosage 5% o.w.f",2.63 Log
same,Log reduction of antimicrobial performance of each active ingredient,"exhaust 80 ° C., solution dosage 1% o.w.f, process time 10 min",0.83 Log
same,Log reduction of antimicrobial performance of each active ingredient,"exhaust 80 ° C., solution dosage 1% o.w.f, process time 20 min",0.99 Log
same,Log reduction of antimicrobial performance of each active ingredient,"exhaust 80 ° C., solution dosage 1% o.w.f, process time 30 min",1.23 Log
same,Log reduction of antimicrobial performance of each active ingredient,"exhaust 80 ° C., solution dosage 1% o.w.f, process time 40 min",1.67 Log
same,Log reduction of antimicrobial performance of each active ingredient,"exhaust 80 ° C., solution dosage 1% o.w.f, process time 50 min",2.56 Log
same,Log reduction of antimicrobial performance of each active ingredient,"exhaust 80 ° C., solution dosage 1% o.w.f, process time 60 min",2.87 Log
same,Log reduction of antimicrobial performance of each active ingredient,"exhaust 80 ° C., solution dosage 1% o.w.f, process time 70 min",2.89 Log
same,Log reduction of antimicrobial performance of each active ingredient,"exhaust 80 ° C., solution dosage 1% o.w.f, process time 80 min",2.93 Log
same,Log reduction of antimicrobial performance of each active ingredient,"exhaust 80 ° C., solution dosage 1% o.w.f, process time 90 min",2.94 Log
same,Performance Test-Log reduction of antimicrobial performance,curing 120° C.,0.04 Log
same,Performance Test-Log reduction of antimicrobial performance,curing 140° C.,0.14 Log
same,Performance Test-Log reduction of antimicrobial performance,curing 150° C.,0.22 Log
same,Performance Test-Log reduction of antimicrobial performance,curing 160° C.,0.49 Log
